Data taken from patent US20250051347A1, “BIFUNCTIONAL CHIMERIC HETEROCYCLIC COMPOUND AND USE THEREOF AS ANDROGEN RECEPTOR DEGRADER” (Hinova Pharmaceuticals, Inc., priority 2021, published 2025).

Biological target: T1, androgen receptor (AR) splicing variant AR-v7 (Homo sapiens, UniProt P10275)
T1 construct: The degradation activity of compounds on AR-v7 in 22RV1 cells; host or cells: 22RV1 cells
T1 sequence (P10275 1-644 isoform P10275-3): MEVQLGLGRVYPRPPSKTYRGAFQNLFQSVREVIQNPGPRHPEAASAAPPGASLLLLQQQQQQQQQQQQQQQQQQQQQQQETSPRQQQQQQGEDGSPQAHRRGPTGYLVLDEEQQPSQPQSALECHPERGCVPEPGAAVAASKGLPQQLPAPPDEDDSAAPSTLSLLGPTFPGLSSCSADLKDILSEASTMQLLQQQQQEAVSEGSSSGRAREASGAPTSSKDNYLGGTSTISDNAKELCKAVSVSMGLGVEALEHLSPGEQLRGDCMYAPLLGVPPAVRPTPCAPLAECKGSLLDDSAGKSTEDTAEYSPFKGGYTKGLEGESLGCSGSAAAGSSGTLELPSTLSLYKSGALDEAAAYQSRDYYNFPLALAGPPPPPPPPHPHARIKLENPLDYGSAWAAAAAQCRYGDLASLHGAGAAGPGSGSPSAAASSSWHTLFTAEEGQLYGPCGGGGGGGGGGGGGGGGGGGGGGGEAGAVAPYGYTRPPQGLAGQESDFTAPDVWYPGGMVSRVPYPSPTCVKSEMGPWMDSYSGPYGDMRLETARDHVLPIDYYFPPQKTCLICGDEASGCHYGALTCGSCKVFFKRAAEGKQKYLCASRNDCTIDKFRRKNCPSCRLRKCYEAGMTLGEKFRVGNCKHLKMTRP
Assay: Degradation activity on androgen receptor splicing variant AR-v7 in 22RV1 cells (ELISA)
Type: cell-based
Conditions: AR-v7 degradation in 22RV1 cells, 48 h

| SMILES | DC50 (class symbols) [nM] | DC50 (numeric values) [nM] |
| --- | --- | --- |
| CC(C)(c1ccc(Oc2nc(N3CC4(COC4)C3)ncc2F)cc1)c1ccc(O[C@H]2C[C@H](Nc3ccc4c(c3)C(=O)N(C3CCC(=O)NC3=O)C4=O)C2)cc1 (stereo partly shown) [Example 247] | 11 to 100 |  |
| Cc1nnc(-c2ccnc(Oc3ccc(C(C)(C)c4ccc(O[C@H]5C[C@H](Nc6ccc7c(c6)C(=O)N(C6CCC(=O)NC6=O)C7=O)C5)cc4)cc3)c2)o1 (stereo partly shown) [Example 257] | 11 to 100 |  |
| CC(C)(c1ccc(Oc2cnc(C(O)C3CCC3)nc2)cc1)c1ccc(O[C@H]2C[C@H](Nc3ccc4c(c3)C(=O)N(C3CCC(=O)NC3=O)C4=O)C2)cc1 (stereo partly shown) [Example 261] | < 10 |  |
| CC(C)(c1ccc(Oc2cnc(C(=O)C3CCC3)nc2)cc1)c1ccc(O[C@H]2C[C@H](Nc3ccc4c(c3)C(=O)N(C3CCC(=O)NC3=O)C4=O)C2)cc1 (stereo partly shown) [Example 262] | 11 to 100 |  |
| CC(C)(c1ccc(Oc2cnc(C(F)(F)F)nc2)cc1)c1ccc(O[C@H]2C[C@H](Nc3ccc4c(c3)C(=O)N(C3CCC(=O)NC3=O)C4=O)C2)cc1 (stereo partly shown) [Example 264] | 11 to 100 |  |
| COC(=O)c1ncc(Oc2ccc(C(C)(C)c3ccc(O[C@H]4C[C@H](Nc5ccc6c(c5)C(=O)N(C5CCC(=O)NC5=O)C6=O)C4)cc3)cc2)cn1 (stereo partly shown) [Example 266, methyl 5-(4-(2-(4-((1r,3r)-3-((2-(2,6-dioxopiperidin-3-yl)-1,3-dioxoisoindolin-5-yl)amino)cyclobutyloxy)phenyl)propan-2-yl)phenoxy)pyrimidin-2-carboxylate] | 11 to 100 |  |
| CC(C)(c1ccc(Oc2cnc(C(=O)O)nc2)cc1)c1ccc(O[C@H]2C[C@H](Nc3ccc4c(c3)C(=O)N(C3CCC(=O)NC3=O)C4=O)C2)cc1 (stereo partly shown) [Example 267, 5-(4-(2-(4-((1r,3r)-3-((2-(2,6-dioxopiperidin-3-yl)-1,3-dioxoisoindolin-5-yl)amino)cyclobutyloxy)phenyl)propan-2-yl)phenoxy)pyrimidin-2-carboxylic acid] | 101 to 1000 |  |
| Cc1noc(-c2ncc(Oc3ccc(C4(c5ccc(O[C@H]6C[C@H](Nc7ccc8c(c7)C(=O)N(C7CCC(=O)NC7=O)C8=O)C6)cc5)CCCC4)cc3)cn2)n1 (stereo partly shown) [Example 297] | < 10 |  |
| CC(=O)c1nccc(COc2ccc(C(C)(C)c3ccc(OCCCCCCCCOCC4CN(c5ccc6c(c5)C(=O)N(C5CCC(=O)NC5=O)C6=O)C4)cc3)cc2)n1 (stereo not shown) [Example 298] |  | > 10000 |
| CC(=O)c1nccc(COc2ccc(C(C)(C)c3ccc(OCCCCCCCCOCCN4CCN(c5ccc6c(c5)C(=O)N(C5CCC(=O)NC5=O)C6=O)CC4)cc3)cc2)n1 (stereo not shown) [Example 299, 5-(4-(2-((8-(4-(2-(4-((2-acetylpyrimidin-4-yl)methoxy)phenyl)propan-2-yl)phenoxy)octyl)oxy)ethyl)piperazin-1-yl)-2-(2,6-dioxopiperidin-3-yl)isoindolin-1,3-dione] |  | > 10000 |
| CC(O)c1nccc(COc2ccc(C(C)(C)c3ccc(OCCCCCCCCOCCN4CCN(c5ccc6c(c5)C(=O)N(C5CCC(=O)NC5=O)C6=O)CC4)cc3)cc2)n1 (stereo not shown) [Example 300] |  | > 10000 |
| CC(=O)c1nccc(COc2ccc(C(C)(C)c3ccc(OCC4CCN(c5cccc6c5C(=O)N(C5CCC(=O)NC5=O)C6=O)C4)cc3)cc2)n1 (stereo not shown) [Example 301, 4-(3-((4-(2-(4-((2-acetylpyrimidin-4-yl)methoxy)phenyl)propan-2-yl)phenoxy)methyl)pyrrolidin-1-yl)-2-(2,6-dioxopiperidin-3-yl)isoindolin-1,3-dione] |  | > 10000 |

Continued, values first:

| DC50 (class symbols) [nM] | DC50 (numeric values) [nM] | SMILES |
| --- | --- | --- |
| 101 to 1000 |  | CC(C)(c1ccc(OCc2ccnc(NC#N)n2)cc1)c1ccc(O[C@H]2C[C@H](Nc3ccc4c(c3)C(=O)N(C3CCC(=O)NC3=O)C4=O)C2)cc1 (stereo partly shown) [Example 245, N-(4-((4-(2-(4-((1s,3s)-3-((2-(2,6-dioxopiperidin-3-yl)-1,3-dioxoisoindolin-5-yl)amino)cyclobutyloxy)phenyl)propan-2-yl)phenoxy)methyl)pyrimidin-2-yl)cyanamide] |
| 11 to 100 |  | Cc1noc(-c2nccc(COc3ccc(C(C)(C)c4ccc(O[C@H]5C[C@H](Nc6ccc7c(c6)C(=O)N(C6CCC(=O)NC6=O)C7=O)C5)cc4)cc3)n2)n1 (stereo partly shown) [Example 250] |
| 1000 to 5000 |  | CC(C)(c1ccc(OCc2ccnc(-c3ncno3)n2)cc1)c1ccc(O[C@H]2C[C@@H](Nc3ccc4c(c3)C(=O)N(C3CCC(=O)NC3=O)C4=O)C2)cc1 (stereo partly shown) [Example 252] |
| 11 to 100 |  | CC(C)(c1ccc(OCc2cccc(-n3cccn3)n2)cc1)c1ccc(O[C@H]2C[C@H](Nc3ccc4c(c3)C(=O)N(C3CCC(=O)NC3=O)C4=O)C2)cc1 (stereo partly shown) [Example 253] |
| 11 to 100 |  | CC(C)(c1ccc(OCc2ccnc(N3C[C@@H]4C[C@H]3CN4)n2)cc1)c1ccc(O[C@H]2C[C@@H](Nc3ccc4c(c3)C(=O)N(C3CCC(=O)NC3=O)C4=O)C2)cc1 (stereo partly drawn) [Example 260, 5-(((1s,3s)-3-(4-(2-(4-((2-((1S,4S)-2,5-diazabicyclo[2.2.1]heptan-2-yl)pyrimidin-4-yl)methoxy)phenyl)propan-2-yl)phenoxy)cyclobutyl)amino)-2-(2,6-dioxopiperidin-3-yl)isoindolin-1,3-dione] |
| 11 to 100 |  | Cc1noc(-c2ncc(Oc3ccc(C(C)(C)c4ccc(O[C@H]5C[C@@H](Nc6ccc7c(c6)C(=O)N(C6CCC(=O)NC6=O)C7=O)C5)cc4)cc3)cn2)n1 (stereo partly shown) [Example 263] |
| 101 to 1000 |  | CC1(CNc2nccc(COc3ccc(C(C)(C)c4ccc(O[C@H]5C[C@@H](Nc6ccc7c(c6)C(=O)N(C6CCC(=O)NC6=O)C7=O)C5)cc4)cc3)n2)COC1 (stereo partly shown) [Example 269] |
| 11 to 100 |  | Cc1noc(C)c1-c1nccc(COc2ccc(C(C)(C)c3ccc(O[C@H]4C[C@H](Nc5ccc6c(c5)C(=O)N(C5CCC(=O)NC5=O)C6=O)C4)cc3)cc2)n1 (stereo partly shown) [Example 271] |
| 11 to 100 |  | CC(C)(c1ccc(OCc2ccnc(-c3cncs3)n2)cc1)c1ccc(O[C@H]2C[C@H](Nc3ccc4c(c3)C(=O)N(C3CCC(=O)NC3=O)C4=O)C2)cc1 (stereo partly shown) [Example 272] |
| 11 to 100 |  | CC(C)(c1ccc(OCc2ccnc(-c3cc[nH]n3)n2)cc1)c1ccc(O[C@H]2C[C@@H](Nc3ccc4c(c3)C(=O)N(C3CCC(=O)NC3=O)C4=O)C2)cc1 (stereo partly shown) [Example 274] |
| 11 to 100 |  | Cc1nc(-c2cccc(COc3ccc(C(C)(C)c4ccc(O[C@H]5C[C@H](Nc6ccc7c(c6)C(=O)N(C6CCC(=O)NC6=O)C7=O)C5)cc4)cc3)n2)no1 (stereo partly shown) [Example 283] |
| 11 to 100 |  | CC(C)(c1ccc(OCc2nc(-n3nccn3)ccc2F)cc1)c1ccc(O[C@H]2C[C@H](Nc3ccc4c(c3)C(=O)N(C3CCC(=O)NC3=O)C4=O)C2)cc1 (stereo partly shown) [Example 284] |
| 11 to 100 |  | CC(C)(c1ccc(OCc2nc(-n3ccnn3)ccc2F)cc1)c1ccc(O[C@H]2C[C@H](Nc3ccc4c(c3)C(=O)N(C3CCC(=O)NC3=O)C4=O)C2)cc1 (stereo partly shown) [Example 285] |
| 11 to 100 |  | CC(C)(c1ccc(OCc2ccc(F)c(-n3ccnn3)n2)cc1)c1ccc(O[C@H]2C[C@H](Nc3ccc4c(c3)C(=O)N(C3CCC(=O)NC3=O)C4=O)C2)cc1 (stereo partly shown) [Example 286] |
| 11 to 100 |  | CC(C)(c1ccc(OCc2ccc(F)c(-n3nccn3)n2)cc1)c1ccc(O[C@H]2C[C@H](Nc3ccc4c(c3)C(=O)N(C3CCC(=O)NC3=O)C4=O)C2)cc1 (stereo partly shown) [Example 287] |
| 11 to 100 |  | Cc1nc(-c2nccc(Oc3ccc(C(C)(C)c4ccc(O[C@H]5C[C@@H](Nc6ccc7c(c6)C(=O)N(C6CCC(=O)NC6=O)C7=O)C5)cc4)cc3)n2)no1 (stereo partly shown) [Example 292] |
